Assays:
[1] = tested on: Rab10 phosphorylation, LRRK2[A2016T]; experiment: Rab10 Thr73 phospho-immunoblot in inhibitor resistant LRRK2[A2016T] knock-in MEFs; assay type: cell-based, mouse; details: 2 h, up to 3 µM
Experimental: Wild-type and homozygous LRRK2 [R1441C] (Jax, stock number: 009346), LRRK2[G2019S] Taconic, (model 13940) and LRRK2 [A2016T] (Jax, stock number: 021828)[7] knock-in MEF cells were isolated from littermate-matched mouse embryos on a C57BL/6J background at day E12.5 as described previously. MEFs were grown in Dulbecco's modified Eagle medium (DMEM GIBCO, #11960-085) containing 10% (by vol) fetal bovine serum (FBS), 2 mM L-glutamine, 100 U/ml penicillin, and […] streptomycin supplemented with non-essential amino acids and 1 mM sodium pyruvate. Human embryonic kidney 293 (HEK293) (#ATCC CRL-1573) and HeLa (#ATCC CCL-2) cells were purchased from American Tissue Culture Collection (ATCC) and cultured in DMEM containing 10% (by vol) FBS, 2 mM L-glutamine, 100 U/ml penicillin, and […] streptomycin. All cells were grown at 37°C, 5% (by vol) CO2 in a humidified atmosphere and regularly tested for mycoplasma contamination.
Inhibitors were dissolved in dimethyl sulfoxide (DMSO) (Sigma, #D2650). The inhibitors were diluted 1000× into cell medium. The equivalent volume of DMSO was added to the minus inhibitor controls. Experiments were performed in six-well plates, 10 cm dishes or 15 cm dishes depending on the amount of cell extract required.
Cells were lysed in an ice-cold lysis buffer containing 50 mM Tris–HCl, pH 7.4, 1% (by vol) Triton X-100, 10% (by vol) glycerol, 150 mM NaCl, 1 mM sodium orthovanadate, 50 mM NaF, 10 mM 2-glycerophosphate, 5 mM sodium pyrophosphate, 1 µg/ml microcystin-LR, and cOmplete EDTA-free protease inhibitor cocktail (Roche, #11836170001). Lysates were incubated on ice for 30 min and clarified by centrifugation at 20 800×g at 4°C for 20 min. Supernatants were quantified by Bradford assay (Bio-Rad Protein Assay Dye Reagent Concentrate #5000006) and samples prepared in 1× lithium dodecyl sulfate sample buffer final concentration (NuPage LDS Sample buffer 4× Invitrogen, #NP0008). When not deployed immediately, lysates were snap-frozen in liquid nitrogen and stored at −80°C until use. […]

LRRK2 14-3-3 binding = tested on: T1, LRRK2 14-3-3 binding; experiment: Analysis of 14-3-3 binding in HEK293 cells overexpressing wild-type LRRK2; assay type: cell-based, human; details: 5 μM GZD-824 for 4 h, 1 μM GSK3357679A
T1 construct: host or cells: HEK293
Experimental: This was undertaken as described previously. Briefly, wild-type FLAG-LRRK2 was transiently expressed in HEK293 cells with HA-Rab29. Twenty-four hours post-transfection cells were lysed with lysis buffer and snap frozen. LRRK2 was immunoprecipitated from 4 mg of lysate using 20 μl anti-FLAG-M2 agarose beads (Sigma, #A2220) for 2 h in rotation at +4°C. Immunoprecipitates were washed once with lysis buffer supplemented with 0.5% (by vol) Nonidet P-40 (instead of Triton X-100) and 0.5 M NaCl followed by two washes. Samples were eluted in 2× LDS sample buffer (20 µl per 10 µl of resin) and heated at 70°C for 10 min. After centrifugation through 0.22 µm Spin X filter, the eluted protein was subjected to immunoblotting with the indicated antibodies. An amount of 10 μl of the final reaction mixture was needed for the detection of binding of endogenous 14-3-3 and 1 µl for detection of LRRK2.

[2] = tested on: Rab29 mediated relocalization of LRRK2 to the Golgi apparatus; experiment: Rab29 mediated recruitment of LRRK2 to the Golgi, immunofluorescence in HeLa cells; assay type: cell-based, human; details: 5 μM GZD-824 or 1 μM GSK3357679A for 4 h
Experimental: HeLa cells were seeded on coverslips and transfected with the plasmid reported in each image 24 h before fixation. Following the treatments with the inhibitors described in figure legends, cells were washed twice in DPBS and fixed with 3.7% Paraformaldehyde pH 7.3 (Agar scientific, #R1026), 200 mM HEPES, for 20 min. Cells were then washed twice with DMEM, 20 mM HEPES, and then incubated for 10 min with DMEM, 10 mM HEPES. After two washes in DPBS, fixed cells were permeabilized with 0.2% (by vol) NP-40 in DPBS for 10 min. Cells were blocked using 1% (by mass) BSA in DPBS, then incubated for 1 h with primary antibodies diluted in 1% (by mass) BSA in DPBS, washed three times in 0.2% (by mass) BSA in DPBS, and incubated for 1 h with secondary antibodies. The coverslips were washed three times with 0.2% (by mass) BSA in PBS. Coverslips were washed once more in double distilled water and mounted on slides (VWR, #631-0909) using ProLong™ Diamond Antifade Mountant (ThermoFisher, #P36961). For localization of the Golgi compartment, Golgin-97 was stained with rabbit anti-GM97 (CST, #D8P2K) and visualized with goat anti-rabbit conjugated to Alexa Fluor 405 (Life Technologies, #P10994). HA-Rab29 was stained with mouse anti-HA (Abcam, clone HA.C5 #ab18181) and visualized with goat anti-mouse conjugated to Alexa Fluor 594 (Life Technologies, #A-11032). […]

Structure (SMILES): Cc1ccc(C(=O)Nc2ccc(CN3CCN(C)CC3)c(C(F)(F)F)c2)cc1C#Cc1cnc2[nH]ncc2c1 [GZD-824]
- effect of A2016T mutation on inhibition of Rab10 phosphorylation [1]: markedly blocked
- impact on 14-3-3 binding to LRRK2 (LRRK2 14-3-3 binding): no significant impact
- impact on Rab29 mediated recruitment of LRRK2 to the Golgi [2]: did not significantly impact

From publication PMC8589421, “Impact of Type II LRRK2 inhibitors on signaling and mitophagy” (Biochemical Journal, 2021)
